Here are results for three compounds from US20080081825A1, “Nitrogen-Containing Heterocyclic Compounds and Medicinal Use Thereof” (priority 2004, published 2008).

In experiment [1] the target is recombinant human p38α MAP kinase (Homo sapiens, UniProt Q16539). Nature of the experiment: Study on p38α MAP kinase inhibitory activity (ATF-2 phosphorylation, Alpha Screen). It counts as biochemical. As to conditions: ATF2 substrate, ATP 90 μmol/L. As for the experimental part: Using activation transcription factor-2 (hereinafter abbreviated as ATF-2) which is a substrate for p38α MAP kinase, the inhibitory action of the compounds of the present invention was investigated on the phosphorylation by a recombinant human p38α MAP kinase.
A kinase buffer (25 mM Tris-HCl (pH 7.5), 5 mM […], 2 mM dithiothreitol, 0.1 mM Na3VO4, 10 mM MgCl2) containing a recombinant human p38α MAP kinase was added to a 384-well plate (5 μL) (6.25 ng protein/well) for fluorescence measurement. After addition of a kinase buffer (5 μL) containing the compound of the present invention, the resulting mixture was incubated at room temperature for 20 minutes. A substrate mixture (5 μL) of biotinylated ATF2 of 5 μg/mL (Upstate Biotechnology #14-432), adenosine triphosphate (90 μmol/L) (Sigma #FL-AAS) and anti-phosphorylated ATF2 antibody (20-fold dilution) (Cell Signaling Technology #9221L) prepared separately was added thereto, and enzyme reaction was carried out at 30° C. for 30 minutes. After the reaction, Hepes buffer (5 μL) containing 0.25% BSA and 100 mM EDTA was added to stop the enzyme reaction. The amount of a complex of the phosphorylated ATF2 and anti-phosphorylated ATF2 antibody produced by the reaction was measured using an Alpha Screenm Rabbit Detection kit (Packard #6760607).
The p38α MAP kinase inhibitory activity, which is the effect of the compound of the present invention, was calculated as an inhibition rate (%) according to the following equation:
(§1) Inhibition rate (%)={(AC−AX)/(AC−AB)}×100
Inhibition rate of compounds with each concentration was calculated, and a value indicating 50% inhibition (IC50) was determined from the inhibition curve.

Experiment [2] relates to TNF-α production induced by lipopolysaccharide (LPS). The experiment is described as follows: Rat cytokine-production model (LPS-induced TNF-α in plasma). The format is in vivo. As to conditions: dose of 3 mg/kg orally, LPS 10 μg/kg intravenously after 2 hours, plasma 90 minutes after LPS. The protocol:
The in vivo effect of the compound of the present invention was studied on TNF-α production induced by lipopolysaccharide (LPS) in rats.
A vehicle containing the compound of the present invention was orally administered to male Lew […] (Charles River Japan, Inc.), and after 2 hours, lipopolysaccharide (LPS, 055:B5, Difco) was intravenously administered at the dose of 10 μg/kg (5 animals/group). Only a vehicle was orally administered to a control group (5 animals). Ninety minutes after the LPS treatment, heparinized blood collection was performed via the abdominal cava vein under anesthesia with ether, and blood plasma was obtained by centrifugation (12,000 rpm, 3 minutes, 4° C.). The obtained blood plasma sample was stored at −80° C. until it was used. TNF-α in the blood plasma was measured using an ELISA kit from Genzyme/Techne (#10516).
The inhibitory activity of the compound of the present invention against TNF-α production was calculated as an inhibition rate (%) according to the following equation:
Inhibition rate (%)={(AC−AX)/A^C}×100

In experiment [3] the test system is TNF-α production, THP-1 human monocyte cell line. The experiment is described as follows: Inhibitory activity against TNF-α production using human cell lines (LPS-stimulated THP-1). It counts as cell-based. As to conditions: 1.5 h, THP-1 cells, LPS stimulation, 90 minutes. The protocol: Using THP-1 which is a human monocyte cell line, the inhibitory effect of the compound of the present invention against TNF-α production stimulated by lipopolysaccharide (LPS) was studied.
Each 50 μL of lipopolysaccharide (LPS; Difco #3120-25-0) prepared to a concentration of 40 ng/mL using RPMI-1640 medium containing 10% fetal calf serum (hereinafter abbreviated to RPMI-1640) and RPMI-1640 containing the compound of the present invention was added to a 96-well plate for cell culture. One hundred μL of the cell suspension of THP-1 (Dainippon Pharmaceutical Co., Ltd, #06-202) prepared to a cell density of 2×10^6 cells/mL using RPMI-1640 was added and cultured for 90 minutes at 37° C. in an incubator (5% CO2, 95% air). After completion of the reaction, the culture medium supernatant was recovered and the amount of produced TNF-α was measured using an ELISA kit (Invitrogen, #850090192).
The inhibitory activity against TNF-α production, which is the effect of the compound of the present invention, was calculated as an inhibition rate (%) by the following equation:
as §1
AX is a measured value with LPS induction in the presence of a test compound. Inhibition rate of compounds with each concentration was calculated, and a value indicating 50% inhibition (IC50) was determined from the inhibition curve.

The structures appear in SMILES notation.

recombinant human p38α MAP kinase, sequence (Q16539 whole entry): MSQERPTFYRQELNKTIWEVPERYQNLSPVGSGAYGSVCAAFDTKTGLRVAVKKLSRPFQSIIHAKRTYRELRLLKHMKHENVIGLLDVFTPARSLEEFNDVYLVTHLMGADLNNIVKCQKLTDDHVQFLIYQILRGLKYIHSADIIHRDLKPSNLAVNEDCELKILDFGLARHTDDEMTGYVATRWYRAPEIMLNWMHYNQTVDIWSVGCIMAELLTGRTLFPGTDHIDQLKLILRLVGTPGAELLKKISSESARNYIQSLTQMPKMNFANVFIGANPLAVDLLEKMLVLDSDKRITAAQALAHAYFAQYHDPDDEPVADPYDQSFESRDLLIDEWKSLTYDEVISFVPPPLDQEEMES

By IC50 is commonly meant the concentration that gives 50% inhibition. As to `O=c1ccc(C(=NO)c2ccc(F)cc2F)cn1-c1c(Cl)cccc1Cl` [Example 7, 1-(2,6-dichlorophenyl)-5-[(2,4-difluorophenyl)(hydroxyimino)methyl]pyridin-2(1H)-one], the IC50 in experiment [1] stood at 4.9 nM.

For `Cc1cc(F)cc(C)c1-n1cc(/C(=N/OC2CCN(C)CC2)c2ccc(F)cc2F)ccc1=O` [Example 48, 5-((Z)-(2,4-difluorophenyl) {[(1-methyl-4-piperidinyl)oxy]iimino}methyl)-1-(4-fluoro-2,6-dimethylphenyl)-2(1H)-pyridinone], the “inhibition against in vivo TNF-α production induced by LPS stimulation” value in experiment [2] is 72%. Also, the results for the IC50 in experiment [3] and in experiment [1] were 2.4 nM and 34 nM, respectively.

In the case of `Cc1cc(C)c(-n2cc(C(=NOC3CCN(C)CC3)c3ccc(F)cc3F)ccc2=O)c(C)c1` [Example 52(9), 5-((2,4-difluorophenyl){[(1-methyl-4-piperidinyl)oxy]imino}methyl)-1-mesityl-2(1H)-pyridinone], the “inhibition against in vivo TNF-α production induced by LPS stimulation” value in experiment [2] is on record as 72%. Moreover, the IC50 in experiment [3] was 7.1 nM; in experiment [1], 20.5 nM.
